Patent US20190309323A1, “PROMOTER WITH AN ENRICHED CYTOSINE-GUANINE DINUCLEOTIDE REGION, VECTORS, CELLULAR LINES, METHOD FOR PRODUCING RECOMBINANT PROTEIN” (UNIVERSIDAD DE CHILE, priority 2016, published 2019)

Test system: CHO-K1 cells
Assay: Transient transfection Dual-Glo luciferase assay (Luc/Ren)
Assay type: cell-based, Chinese hamster
Settings: FIG. 9
Description: Furthermore, the effect of addition of the promoter on luciferase activity in transient transfections was determined. CHO-K1 cells were grown to reach 90% confluence were co-transfected using Lipofectamine CD (Invitrogen. EEU U), with the normalization vector pGL4.73 (Promega. USA) expressing Renilla luciferase reniformis (Ren), under the control of SV40 promoter, and with experimental vectors Seq1-Luc (SEQ ID No.: 2), Seq4-Luc (SEQ ID No.: 35) and Seq5-Luc (SEQ ID No.: 36) expressing Photinus pyralis luciferase (Luc), under the control of the promoters studied and pGL4.17 (base vector without promoter).
CHO-K1 cells were cultured in 24-well plates in DMEM-F12 medium (Gibco) supplemented with fetal bovine serum (FBS) (HyClone) 10%, at 37° C. and 5% CO2, inoculating 300,000 cells/mL for 24 hours, or up to between 80 to 90% confluency. […] To analyze the activity of the reporter gene transfections, the “Dual-Glo Luciferase Assay System (Promega. USA)” (Promega) was used following the manufacturer's instruction, where from cell lysate its measurable sequentially luciferase activity firefly expressed as reporters vectors and activity of renilla luciferase expressed by the normalizer vector. Both activities were mediated by quantifying luminiscence read on a Lumininometer, model Luminoskan ASECNT (Thermo Electronic Corporation). […]

Row | Molecule | relative luciferase activity in transient transfection
1 | Seq5-Luc: reporter vector SEQ ID No. 36 under control of the minimal portion of CMV or Core CMV [reference compound] | lowest activity
2 | RegCG: 1147 bp fragment of Cricetulus griseus β-actin promoter rich in cytosine-guanine dinucleotides, SEQ ID NO. 5 (nucleic acid, Promoter) DNA: GGAGAGGGGGTAAAAAAATGCTGCACTGTGCGGCTAGGCCGGTGAGTGAGCGGCGCGGAGCCAATCAGCGCTCGCCGTTCCGAAAGTTGCCTTTTATGGCTCGAGTGGCCGCTGTGGCGTCCTATAAAACCCGGCGGCGCAACGCGCAGCCACTGTCGAGTCCGCGTCCACCCGCGAGCACAGGCCTTTCGCAGCTCTTTCTTCGCCGCTCCACACCCGCCACCAGGTAAGCAGGGACAACAGGCCCAGCCGGCCACAGCCCTCCCGTGGGCAGTGACCGCGCTGCAGGGTCGCGGGGGACACTCGGCGCGGACACCGGGGAAGGCTGGAGGGTGGTGCCGGGCCGCGGAGCGGACACTTTCAGATCCAACTTTCAGTCCAGGGTGTAGACCCTTTACAGCCGCATTGCCACGGTGTAGACACCGGTGGACCCGCTCTGGCTCAGAGCACGCGGCTTGGGGGAACCCATTAGGGTCGCAGTGTGGGCGCTATGAGAGCCGATGCAGCTTTCGGGTGTTGAACCGTATCTGCCCACCTTGGGGGGAGGACACAAGGTCGGGAGCCAAACGCCACGATCATGCCTTGGTGGCCCATGGGTCTTTGTCTAAACCGGTTTGCCCATTTGGCTTGCCGGGCGGGCGGGCGCGGCGGGCCCGGCTCGGCCGGGTTGGGGGCTGGGTTGCCACTGCGCTTGCGCGCTCTATGGCTGGGTATTGGGGCGCGTGCACGCTGGGGAGGGAGCCCTTCCTCTTCCCCCTCTCCCAAGTTAAACTTGCGCGTGCGTATTGAGACTTGGAGCGCGGCCACCGGGGTTGGGCGAGGGCGGGGCCGTTGTCCGGAAGGGGCGGGGTCGCAGCGGCTTCGGGGCGCCTGCTCGCGCTTCCTGCTGGGTGTGGTCGCCTCCCGCGCGCGCACTAGCCGCCCGCCGGCGGGGCGAAGGCGGGGCTTGCGCCCGTTTGGGGAGGGGGCGGAGGCCTGGCTTCCTGCCGTGGGGCCGCCTCCGGACCAGCGTTTGCCTCTTATGGTAATAACGCGGCCGGCCTGGGCTTCCTTTGTCCCCTGAGTTTGGGCGCGCGCCCCCTGGCGGCCCGAGGCCGCGGCTTGCCGGAAGTGGGCAGGGCGGCAGCGGCTGCGCCTAGTGGCCCGCCAGTGACCGCGACCCTCTTTTGTGCCCTGATATAGTTCGCC | has transcriptional activity
